System: MV-4-11 cells
Assay: Gene expression microarray analysis (Affymetrix PrimeView) and GSEA
Type: cell-based, human
Set-up: RFU PODN (11730768_x_at) / Fold change /veh PODN (11730768_x_at) / RFU LINC00158 (11744669_a_at) / Fold change /veh LINC00158 (11744669_a_at) / RFU DUSP10 (11751237_a_at) / Fold change /veh DUSP10 (11751237_a_at) / RFU ID3 (11757404_x_at) / Fold change /veh ID3 (11757404_x_at) / RFU PLEKHG5 (11737974_s_at) / Fold change /veh PLEKHG5 (11737974_s_at) / RFU LRRC4B (11730491_at) / Fold change /veh LRRC4B (11730491_at) / RFU GIMAP4 (11747438_a_at) / Fold change /veh GIMAP4 (11747438_a_at) / RFU KRT8 (11758183_x_at) / Fold change /veh KRT8 (11758183_x_at) / RFU CNN1 (11734310_a_at) / Fold change /veh CNN1 (11734310_a_at) / RFU VPS37D (11726825_at) / Fold change /veh VPS37D (11726825_at) / RFU C10orf10 (11716522_x_at) / Fold change /veh C10orf10 (11716522_x_at) / RFU KIR2DL2 /// KIR2DL4 /// KIR2DL5A /// KIR2DL5B /// KIR2DS1 /// KIR2DS2 /// KIR2DS3 /// KIR2DS4 /// KIR3DL3 /// KIR3DL3 /// KIR3DS1 (11738374_at) / Fold change /veh KIR2DL2 /// KIR2DL4 /// KIR2DL5A /// KIR2DL5B /// KIR2DS1 /// KIR2DS2 /// KIR2DS3 /// KIR2DS4 /// KIR3DL3 /// KIR3DL3 /// KIR3DS1 (11738374_at) / RFU C1QL1 (11718748_at) / Fold change /veh C1QL1 (11718748_at) / RFU TMPRSS4 (11747572_a_at) / Fold change /veh TMPRSS4 (11747572_a_at) / RFU HAMP (11756126_x_at) / Fold change /veh HAMP (11756126_x_at) / RFU RNFT2 (11725882_a_at) / Fold change /veh RNFT2 (11725882_a_at) / RFU NR4A2 (11747474_a_at) / Fold change /veh NR4A2 (11747474_a_at) / RFU ABCC12 (11746883_a_at) / Fold change /veh ABCC12 (11746883_a_at) / RFU TMEM136 (11760407_x_at) / Fold change /veh TMEM136 (11760407_x_at) / RFU CLDN22 /// WWC2 (11732394_at) / Fold change /veh CLDN22 /// WWC2 (11732394_at) / RFU HLA-DPB1 (11760878_x_at) / Fold change /veh HLA-DPB1 (11760878_x_at) / RFU SPINT1 (11716480_a_at) / Fold change /veh SPINT1 (11716480_a_at) / RFU GAP43 (11754022_s_at) / Fold change /veh GAP43 (11754022_s_at) / RFU A4GNT (11735810_at) / Fold change /veh A4GNT (11735810_at) / RFU PRB3 (11715151_x_at) / Fold change /veh PRB3 (11715151_x_at) / RFU TUBB4B (11761932_at) / Fold change /veh TUBB4B (11761932_at) / RFU CAPN14 (11732068_a_at) / Fold change /veh CAPN14 (11732068_a_at) / RFU TMCC2 (11721928_a_at) / Fold change /veh TMCC2 (11721928_a_at) / RFU IRGQ (11745062_a_at) / Fold change /veh IRGQ (11745062_a_at) / RFU FAM174B (11720279_a_at) / Fold change /veh FAM174B (11720279_a_at) / RFU TMPRSS4 (11748680_a_at) / Fold change /veh TMPRSS4 (11748680_a_at) / RFU FAM212B (11763350_a_at) / Fold change /veh FAM212B (11763350_a_at) / RFU PLEKHG5 (11743358_a_at) / Fold change /veh PLEKHG5 (11743358_a_at) / RFU ZSCAN30 (11745921_a_at) / Fold change /veh ZSCAN30 (11745921_a_at) / RFU CMKLR1 (11741424_a_at) / Fold change /veh CMKLR1 (11741424_a_at) / RFU LOC101060620 /// MAPK8IP1 (11723275_at) / Fold change /veh LOC101060620 /// MAPK8IP1 (11723275_at) / RFU SPTSSB (11747773_x_at) / Fold change /veh SPTSSB (11747773_x_at) / RFU PRSS12 (11739890_at) / Fold change /veh PRSS12 (11739890_at) / RFU BIN1 (11741810_x_at) / Fold change /veh BIN1 (11741810_x_at) / RFU WNT11 (11732464_a_at) / Fold change /veh WNT11 (11732464_a_at) / RFU C10orf10 (11716521_a_at) / Fold change /veh C10orf10 (11716521_a_at) / RFU C5orf56 (11738089_at) / Fold change /veh C5orf56 (11738089_at) / RFU CYB561 (11721691_x_at) / Fold change /veh CYB561 (11721691_x_at) / RFU ANKRD19P (11752326_a_at) / Fold change /veh ANKRD19P (11752326_a_at) / RFU OR2T12 /// OR2T33 /// OR2T8 (11738714_s_at) / Fold change /veh OR2T12 /// OR2T33 /// OR2T8 (11738714_s_at) / RFU VCAN (11748164_a_at) / Fold change /veh VCAN (11748164_a_at) / RFU JSRP1 (11732532_at) / Fold change /veh JSRP1 (11732532_at) / RFU KRTAP10-11 (11738290_x_at) / Fold change /veh KRTAP10-11 (11738290_x_at) / RFU MYO3A (11730013_a_at) / Fold change /veh MYO3A (11730013_a_at) / RFU EBF3 (11725865_a_at) / Fold change /veh EBF3 (11725865_a_at) / RFU CAMK2N1 (11719241_x_at) / Fold change /veh CAMK2N1 (11719241_x_at) / RFU C5orf56 (11738088_a_at) / Fold change /veh C5orf56 (11738088_a_at) / RFU OLFML3 (11715873_a_at) / Fold change /veh OLFML3 (11715873_a_at) / RFU LOC100653217 /// NTM (11731650_a_at) / Fold change /veh LOC100653217 /// NTM (11731650_a_at) / RFU MAPK11 (11762145_a_at) / Fold change /veh MAPK11 (11762145_a_at) / RFU FIZ1 (11724087_x_at) / Fold change /veh FIZ1 (11724087_x_at) / RFU OASL (11726364_x_at) / Fold change /veh OASL (11726364_x_at) / RFU SOX15 (11748057_x_at) / Fold change /veh SOX15 (11748057_x_at) / RFU CD79A (11719716_a_at) / Fold change /veh CD79A (11719716_a_at) / RFU HIST1H1D (11736915_at) / Fold change /veh HIST1H1D (11736915_at) / RFU CASKIN2 (11723855_a_at) / Fold change /veh CASKIN2 (11723855_a_at) / RFU LOC730098 (11760151_x_at) / Fold change /veh LOC730098 (11760151_x_at) / RFU OR4N2 (11742367_at) / Fold change /veh OR4N2 (11742367_at) / RFU PRRT2 (11749266_a_at) / Fold change /veh PRRT2 (11749266_a_at) / RFU SNX32 (11753110_a_at) / Fold change /veh SNX32 (11753110_a_at) / RFU CDHR5 (11726645_a_at) / Fold change /veh CDHR5 (11726645_a_at) / RFU RCAN1 (11760418_a_at) / Fold change /veh RCAN1 (11760418_a_at) / RFU FAM167A (11723789_a_at) / Fold change /veh FAM167A (11723789_a_at) / RFU FAM26E (11764081_at) / Fold change /veh FAM26E (11764081_at) / RFU ISYNA1 (11749810_s_at) / Fold change /veh ISYNA1 (11749810_s_at) / RFU ACY1 (11761880_at) / Fold change /veh ACY1 (11761880_at) / RFU 11764098_at / Fold change /veh 11764098_at / RFU SAMD14 (11745864_x_at) / Fold change /veh SAMD14 (11745864_x_at) / RFU NPB (11741838_a_at) / Fold change /veh NPB (11741838_a_at) / RFU TMPRSS6 (11731388_a_at) / Fold change /veh TMPRSS6 (11731388_a_at) / RFU KRTAP10-2 (11738614_at) / Fold change /veh KRTAP10-2 (11738614_at) / RFU ARHGAP8 /// PRR5-ARHGAP8 (11727945_x_at) / Fold change /veh ARHGAP8 /// PRR5-ARHGAP8 (11727945_x_at) / RFU KRTAP5-7 /// NADSYN1 (11734609_at) / Fold change /veh KRTAP5-7 /// NADSYN1 (11734609_at) / RFU RASL12 (11751679_a_at) / Fold change /veh RASL12 (11751679_a_at) / RFU CDKN2B (11736163_a_at) / Fold change /veh CDKN2B (11736163_a_at) / RFU PRF1 (11729649_at) / Fold change /veh PRF1 (11729649_at) / RFU, ZNF638 /// ZNF638-IT1 / Fold change vs veh, ZNF638 /// ZNF638-IT1 / RFU, PANK3 / Fold change vs veh, PANK3 / RFU, SH3YL1 / Fold change vs veh, SH3YL1 / RFU, ZEB2 / Fold change vs veh, ZEB2 / RFU, NRIP1 / Fold change vs veh, NRIP1 / RFU, PTTG1IP / Fold change vs veh, PTTG1IP / RFU, CAPN2 / Fold change vs veh, CAPN2 / RFU, MED14 / Fold change vs veh, MED14 / RFU, SNORA58 / Fold change vs veh, SNORA58 / RFU, C1orf63 / Fold change vs veh, C1orf63 / RFU, LRRFIP1 / Fold change vs veh, LRRFIP1 / RFU, NDUFAF7 / Fold change vs veh, NDUFAF7 / RFU, SLC12A2 / Fold change vs veh, SLC12A2 / RFU, IBTK / Fold change vs veh, IBTK / RFU, ESF1 / Fold change vs veh, ESF1 / Fold change vs veh, TMEM50B / RFU, TAOK1 / Fold change vs veh, TAOK1 / RFU, ACBD3 / Fold change vs veh, ACBD3 / RFU, TMA16 / Fold change vs veh, TMA16 / RFU, RWDD3 / Fold change vs veh, RWDD3 / RFU, BCAT1 / Fold change vs veh, BCAT1 / RFU, EDEM3 / Fold change vs veh, EDEM3 / RFU, TMEM33 / Fold change vs veh, TMEM33 / RFU, WDR75 / Fold change vs veh, WDR75 / RFU, AHCTF1 / Fold change vs veh, AHCTF1 / RFU, TFRC / Fold change vs veh, TFRC / RFU, ZDHHC17 / Fold change vs veh, ZDHHC17 / RFU, NOM1 / Fold change vs veh, NOM1 / RFU, ARL8B / Fold change vs veh, ARL8B / RFU, ZBTB11 / Fold change vs veh, ZBTB11 / RFU, TAMM41 / Fold change vs veh, TAMM41 / RFU, KIAA1704 /// LOC100996395 / Fold change vs veh, KIAA1704 /// LOC100996395 / RFU, ING1 / Fold change vs veh, ING1 / RFU, TRMT61B / Fold change vs veh, TRMT61B / RFU, FUBP3 / Fold change vs veh, FUBP3 / RFU, TP53 / Fold change vs veh, TP53 / RFU, TNKS2 / Fold change vs veh, TNKS2 / RFU, ZFP14 / Fold change vs veh, ZFP14 / RFU, ACTR2 / Fold change vs veh, ACTR2 / RFU, PPP3R1 / Fold change vs veh, PPP3R1 / RFU, PIK3R1 / Fold change vs veh, PIK3R1 / RFU, HNRNPA1 / Fold change vs veh, HNRNPA1 / RFU, RNF170 / Fold change vs veh, RNF170 / RFU, ZNF28 / Fold change vs veh, ZNF28 / RFU, RNGTT / Fold change vs veh, RNGTT / RFU, OGT / Fold change vs veh, OGT / RFU, BRD1 / Fold change vs veh, BRD1 / RFU, MARS / Fold change vs veh, MARS / RFU, ZNF655 / Fold change vs veh, ZNF655 / RFU, FAHD1 / Fold change vs veh, FAHD1 / RFU, BDP1 / Fold change vs veh, BDP1 / RFU, LRRCC1 / Fold change vs veh, LRRCC1 / RFU, ARID1A / Fold change vs veh, ARID1A / RFU, ZNF146 / Fold change vs veh, ZNF146 / RFU, ZNF330 / Fold change vs veh, ZNF330 / RFU, GPN3 / Fold change vs veh, GPN3 / RFU, C9orf123 / Fold change vs veh, C9orf123 / RFU, N4BP2L2 / Fold change vs veh, N4BP2L2 / RFU, ARFIP1 / Fold change vs veh, ARFIP1 / RFU, FAM179B / Fold change vs veh, FAM179B / RFU, BCL10 / Fold change vs veh, BCL10 / RFU, UHRF1BP1L / Fold change vs veh, UHRF1BP1L / RFU, BET1 / Fold change vs veh, BET1 / RFU, CNOT2 / Fold change vs veh, CNOT2 / RFU, ZNF268 / Fold change vs veh, ZNF268 / Fold change vs veh, ZNF507 / RFU, DGCR2 / Fold change vs veh, DGCR2 / RFU, WDSUB1 / Fold change vs veh, WDSUB1 / Fold change vs veh, HSP90B1 /// MIR3652 / RFU, ADSS / Fold change vs veh, ADSS / RFU, GK / Fold change vs veh, GK / RFU, ZNF148 / Fold change vs veh, ZNF148 / RFU, TAF9 / Fold change vs veh, TAF9 / RFU, SLC1A5 / Fold change vs veh, SLC1A5 / RFU, SLMO2 / Fold change vs veh, SLMO2 / RFU, ABCC4 / Fold change vs veh, ABCC4 / RFU, LOC101060439 /// RAP1B / Fold change vs veh, LOC101060439 /// RAP1B / RFU, RFX7 / Fold change vs veh, RFX7 / RFU, GTPBP10 / Fold change vs veh, GTPBP10 / RFU, CNEP1R1 / Fold change vs veh, CNEP1R1 / RFU, BIVM-ERCC5 /// ERCC5 / Fold change vs veh, BIVM-ERCC5 /// ERCC5 / RFU, ILF3 / Fold change vs veh, ILF3 / RFU 11762660_at / Fold change /veh 11762660_at / RFU VCAN (11757783_s_at) / Fold change /veh VCAN (11757783_s_at) / RFU DDX43 (11728927_at) / Fold change /veh DDX43 (11728927_at) / RFU KRT8 (11758188_x_at) / Fold change /veh KRT8 (11758188_x_at) / RFU NKD1 (11759106_at) / Fold change /veh NKD1 (11759106_at) / RFU SRD5A1 (11742802_a_at) / Fold change /veh SRD5A1 (11742802_a_at) / RFU TPSAB1 /// TPSB2 (11721975_s_at) / Fold change /veh TPSAB1 /// TPSB2 (11721975_s_at) / RFU GSTM3 (11746129_a_at) / Fold change /veh GSTM3 (11746129_a_at) / RFU IL23R (11737362_x_at) / Fold change /veh IL23R (11737362_x_at) / RFU TMEM51 (11727254_a_at) / Fold change /veh TMEM51 (11727254_a_at) / RFU PIWIL2 (11732686_x_at) / Fold change /veh PIWIL2 (11732686_x_at) / RFU ORM1 (11744905_x_at) / Fold change /veh ORM1 (11744905_x_at) / RFU CCDC152 (11743942_at) / Fold change /veh CCDC152 (11743942_at) / RFU ECM1 (11717891_a_at) / Fold change /veh ECM1 (11717891_a_at) / RFU IL23R (11748794_a_at) / Fold change /veh IL23R (11748794_a_at) / RFU TNFAIP8L3 (11732012_x_at) / Fold change /veh TNFAIP8L3 (11732012_x_at) / RFU MBOAT4 (11741988_at) / Fold change /veh MBOAT4 (11741988_at) / RFU 11764193_at / Fold change /veh 11764193_at / RFU TMEM53 (11763286_at) / Fold change /veh TMEM53 (11763286_at) / RFU MAGEB2 (11727129_at) / Fold change /veh MAGEB2 (11727129_at) / RFU TMEM200A (11744735_a_at) / Fold change /veh TMEM200A (11744735_a_at) / RFU CCDC152 (11751479_a_at) / Fold change /veh CCDC152 (11751479_a_at) / RFU FAM211A (11726209_a_at) / Fold change /veh FAM211A (11726209_a_at) / RFU RGS16 (11746705_a_at) / Fold change /veh RGS16 (11746705_a_at) / RFU VCAN (11755009_s_at) / Fold change /veh VCAN (11755009_s_at) / RFU RHOB (11743442_s_at) / Fold change /veh RHOB (11743442_s_at) / RFU RGS16 (11720943_a_at) / Fold change /veh RGS16 (11720943_a_at) / RFU RGS16 (11720944_at) / Fold change /veh RGS16 (11720944_at) / RFU, VPS4B / Fold change vs veh, VPS4B / RFU, CREB1 / Fold change vs veh, CREB1 / RFU, DNAJC13 / Fold change vs veh, DNAJC13 / RFU, GNAQ / Fold change vs veh, GNAQ / RFU, CDK5R1 / Fold change vs veh, CDK5R1 / RFU, ZRANB3 / Fold change vs veh, ZRANB3 / RFU, CUL4A / Fold change vs veh, CUL4A / RFU, CCNY / Fold change vs veh, CCNY / RFU, UFL1 / Fold change vs veh, UFL1 / RFU, COG3 / Fold change vs veh, COG3 / RFU, DIAPH2 / Fold change vs veh, DIAPH2 / RFU, SKA2 / Fold change vs veh, SKA2 / RFU, AFF3 / Fold change vs veh, AFF3 / RFU, LMF1 / Fold change vs veh, LMF1 / RFU, IPO11 / Fold change vs veh, IPO11 / RFU, DFFB / Fold change vs veh, DFFB / RFU, FOXP1 / Fold change vs veh, FOXP1 / RFU, CARD8 / Fold change vs veh, CARD8 / RFU, STRN3 / Fold change vs veh, STRN3 / RFU, ADK / Fold change vs veh, ADK / RFU, RASSF2 / Fold change vs veh, RASSF2 / RFU, WIPF1 / Fold change vs veh, WIPF1 / RFU, LARP1B / Fold change vs veh, LARP1B / RFU, RASA1 / Fold change vs veh, RASA1 / RFU, RB1 / Fold change vs veh, RB1 / RFU, PPFIA1 / Fold change vs veh, PPFIA1 / RFU, MAT2A / Fold change vs veh, MAT2A / RFU, CCT5 / Fold change vs veh, CCT5 / RFU, WDR92 / Fold change vs veh, WDR92 / RFU, CUX1 / Fold change vs veh, CUX1 / RFU, TTC7A / Fold change vs veh, TTC7A / RFU, TMEM135 / Fold change vs veh, TMEM135 / RFU, DEPTOR / Fold change vs veh, DEPTOR / RFU, CPM / Fold change vs veh, CPM / RFU, DNAJB6 / Fold change vs veh, DNAJB6 / RFU, CACNA2D3 / Fold change vs veh, CACNA2D3 / RFU, DTX4 / Fold change vs veh, DTX4 / RFU, TFCP2 / Fold change vs veh, TFCP2 / RFU, GMCL1 /// GMCL1P1 / Fold change vs veh, GMCL1 /// GMCL1P1 / RFU, AEBP2 / Fold change vs veh, AEBP2 / RFU, SNHG1 /// SNORD22 /// SNORD25 /// SNORD26 /// SNORD27 /// SNORD28 /// SNORD29 /// SNORD31 / Fold change vs veh, SNHG1 /// SNORD22 /// SNORD25 /// SNORD26 /// SNORD27 /// SNORD28 /// SNORD29 /// SNORD31 / Fold change (Aza/veh), C12orf56 (ProbeSet 11735607_a_at) / Fold change (ACY-1035/veh), C12orf56 (ProbeSet 11735607_a_at) / Fold change (Aza/veh), FGFR1OP (ProbeSet 11751329_s_at) / Fold change (ACY-1035/veh), FGFR1OP (ProbeSet 11751329_s_at) / Fold change (Aza/veh), VPS36 (ProbeSet 11739960_a_at) / Fold change (ACY-1035/veh), VPS36 (ProbeSet 11739960_a_at) / RFU SYPL1 (11715823_x_at) / Fold change /veh SYPL1 (11715823_x_at) / RFU IGFBP7 (11715501_s_at) / Fold change /veh IGFBP7 (11715501_s_at) / RFU REEP3 (11722064_at) / Fold change /veh REEP3 (11722064_at) / RFU IGLL1 (11728026_x_at) / Fold change /veh IGLL1 (11728026_x_at): dose or concentration left out as unconfirmed
Details: MV-4-11 cells, 48 hours

## Nc1ncn([C@@H]2O[C@H](CO)[C@@H](O)[C@H]2O)c(=O)n1 [azacitidine]
  RFU FIZ1 (11724087_x_at): 32.14 RFU

— paper PMC5218480 (PLoS ONE, 2017)
